Reference: patent publication US4798833A, “Guanine derivative” (priority 1983, dated 1989)
pIC50, pKi: −log10 of the molar value.

What was measured:
[1] = test system: HSV-2 (strain 91075); assay: Systemic (i.p.) HSV-2 infection in mice; type: in vivo; details: treated animals
[2] = test system: HSV-1 (C42); assay: Systemic (i.p.) HSV-1 infection in mice; type: in vivo; details: treated animals
[3] = test system: cutaneous herpesvirus infection; assay: Cutaneous herpesvirus infection on guinea pigs, topical treatment; type: in vivo
Procedure: Thirty μl of solution or solvent was added topically 3 times per day for 4 days starting 24 h post inoculation.

[4] = Cellular toxicity, reduction in growth of human embryonic cells; details: flow 1000 cells
[5] = target: HSV-1 thymidine kinase (Human herpesvirus 1, UniProt P0DTH5); assay: biochemical; details: for pKi: HSV-1 thymidine kinase, read-out: Inhibition constant Ki
Chain of HSV-1 thymidine kinase (P0DTH5 whole entry): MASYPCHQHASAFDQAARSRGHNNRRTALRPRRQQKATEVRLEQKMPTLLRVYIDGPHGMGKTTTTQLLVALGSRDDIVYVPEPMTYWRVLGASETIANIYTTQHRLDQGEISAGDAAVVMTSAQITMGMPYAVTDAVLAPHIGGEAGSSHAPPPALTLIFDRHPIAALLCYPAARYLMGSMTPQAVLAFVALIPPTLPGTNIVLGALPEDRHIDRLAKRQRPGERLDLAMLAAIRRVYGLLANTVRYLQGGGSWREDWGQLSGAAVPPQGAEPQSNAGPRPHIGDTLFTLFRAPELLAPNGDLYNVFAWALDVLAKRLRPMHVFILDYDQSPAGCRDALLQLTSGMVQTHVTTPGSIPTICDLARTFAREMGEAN

[6] = test system: HSV-1 (strain C42); assay: Plaque reduction assay, inhibition of HSV-1 multiplication in Vero cells; type: cell-based, Herpes simplex type 1 virus; details: read-out: Inhibition (%)/Conc. (μM), HSV-1 in Vero cells; for inhibition at 1 µM: Human alphaherpesvirus 1, 1 μM
[7] = test system: HSV-1 (strain C42); assay: Plaque reduction assay, inhibition of HSV-1 multiplication in HEL cells; type: cell-based, Herpes simplex type 1 virus; details: Human alphaherpesvirus 1, HEL (human embryonic lung) cells, read-out: HSV-1 in HEL cells ID50
[8] = test system: VZV (several strains); assay: Inhibition of VZV multiplication in HL cells, late antigens by ELISA; type: cell-based, Varicella zoster virus
Procedure: I. Inhibition of virus multiplication in cell cultures
Virol. 2 357 (1968). The effect on VZV (several strains) multiplication in HL (human lung fibroblast) cells by VSA 671 was determined by measuring the formation of late antigens by the ELISA technique as described by B. Wahren et al., J. Virological Methods 6, 141-149 (1983).

[9] = 25 mg/kg i.p. twice daily 5 days, untreated 90, 21 days
[10] = 50 mg/kg i.p. twice daily 5 days, untreated 90, 21 days

Q: Which results are given for `Nc1nc2c(ncn2CCC(CO)CO)c(=O)[nH]1` [VIS 873, 9-[4-hydroxy-3-(hydroxymethyl)butyl]guanine]?
A: Cumulative mortality (%) (treated/untreated) ([1]; 5 mg/kg i.p. twice daily 5 days, untreated 90, 21 days): 70%; Cumulative mortality (%) (treated/untreated) ([1]; 10 mg/kg i.p. twice daily 5 days, untreated 90, 21 days): 20%; Cumulative mortality (%) (treated/untreated) [1, 9]: 0%; Cumulative mortality (%) (treated/untreated) ([1]; 50 mg/kg i.p. twice daily 5 days, untreated 100, 21 days): 10%; Cumulative mortality (%) (treated/untreated) ([2]; 5 mg/kg i.p. twice daily 5 days, untreated 80, 21 days): 30%; Cumulative mortality (%) (treated/untreated) ([2]; 10 mg/kg i.p. twice daily 5 days, untreated 80, 21 days): 0%; Percent reduction in cumulative score as compared to placebo treatment ([3]; 2.5% in dimethylsulfoxide, 30 μl topically 3 times per day for 4 days starting 24 h post inoculation): 36%; Therapeutic effect on cutaneous herpesvirus infections (in words) ([3]; topical): had a therapeutic effect on cutaneous herpesvirus infections when applied topically; inhibition at 48 h, 200 µM [4]: 7%; pKi [5]: 5.82; inhibition at 1 µM [6]: > 90%; pIC50 [7]: 6.40

Q: What does the source list for `Nc1nc2c(ncn2C/C=C\CO)c(=O)[nH]1` [VSA 151, cis-9-(4-hydroxy-2-butenyl)guanine]?
A: inhibition at 48 h, 200 µM [4]: 0%; pKi [5]: 5.15; inhibition at 10 µM ([6]; Human alphaherpesvirus 1, 10 μM): > 90%; pIC50 [7]: 6.22

Q: Which inhibition at 48 h, 200 µM [4] does the source give for `Nc1nc2c(ncn2CC=C(CO)CO)c(=O)[nH]1` [VSA 668, 9-[4-hydroxy-3-(hydroxymethyl)-2-butenyl]guanine] here?
A: 0%

Q: What about the pKi [5] of the same compound?
A: 4.60

Q: And the inhibition at 25 µM ([6]; Human alphaherpesvirus 1, 25 μM)?
A: > 90%

Q: What does the source list for `Nc1nc2c(ncn2CC(CO)CCO)c(=O)[nH]1` (stereo not drawn) [VSA 671, 9-[4-hydroxy-2-(hydroxymethyl)butyl]guanine]?
A: pIC50 ([8]; Human alphaherpesvirus 3, HL (human lung fibroblast) cells, several strains, late antigens by ELISA, read-out: VZV in HL cells ID50): 5.60 to 5.89; Effect against varicella zoster virus multiplication ([8]; in words): very good effect against varicella zoster virus multiplication; Cumulative mortality (%) (treated/untreated) [1, 9]: 40%; Cumulative mortality (%) (treated/untreated) [1, 10]: 30%; Cumulative mortality (%) (treated/untreated) [2, 9]: 30%; Cumulative mortality (%) (treated/untreated) [2, 10]: 30%; inhibition at 48 h, 200 µM [4]: 18%; Affinity for viral thymidine kinase (in words) [5]: affinity close to that of the natural substrate, thymidine; pKi [5]: 6.22; inhibition at 1 µM [6]: > 90%; pIC50 [7]: 6.70
